Columns and labels:
[1] = system: E. coli strain UZ_TEM104; format: cell-based
[2] = system: E. coli K12 MG1655 overexpressing GFP; experiment: Structured Illumination Microscopy of bacterial strains stably expressing GFP or FP fusions; format: cell-based; details: strains expressing GFP or proteins fused to FPs, treated with TEM3.2
Procedure: (§1) FIGS. 3A-3P. […] Three replicates are shown for each condition. […] A single representative image is shown. […] Three replicates are shown for each condition. (FIG. 3E) [Left] […] [Middle] […] [Right] […] A single representative image is shown. […] A single representative image is shown. […] A single representative image is shown. […] A single representative blot is shown. […] 106 cells were analysed for the plot.
Moreover, we confirmed the presence of the protein in the correct band using mass spectrometry proteomics. We repeated this with a strain expressing SHV-154, blotting with a polyclonal rabbit antibody raised against the recombinant SHV enzyme described above (FIG. 3K).
Bacteria were fixed by adding 2.5% paraformaldehyde and 0.04% glutaraldehyde (final concentrations) to the culture media, followed by incubation at room temperature for 15 mins and 30 mins on ice. Bacteria were then washed in PBS and resuspended in GTE buffer (50 mM glucose, 25 mM Tris, and 10 mM EDTA, pH 8.0). Directly preceding microscopic analysis, cells were transferred to a glass slide and covered with a coverslip. Imaging was performed using a Zeiss Elyra S.1 system in the LiMoNe Light microscopy facility of VIB-KU Leuven.

[3] = system: E. coli UZ_TEM104; experiment: FACS analysis with Propidium Iodide and pFTAA; format: cell-based
Procedure: as §1
First, we tested the assay using a mixture of live and heat inactivated (FIG. 3L) or just live bacteria (FIG. 3M), showing that heat inactivated, but not live bacteria are stained with PI, and neither are stained with pFTAA.
Bacterial cells in the cleaned suspensions were stained with both propidium iodide (PI) and FITC peptide to evaluate the killing rate and peptide uptake in a two-dimensional analysis. […] Treated bacteria washed with PBS buffer two times. One microliter of PI (Invitrogen) was added to the bacteria and incubated for 5 min. The bacteria were used by FACS tubes for 40000 events. To correlate the activity of the peptides with cell death, the fluorescence intensity was measured in two channels using the Gallios™ Flow Cytometer (Beckman Coulter, USA), PI: excitation 536 nm and emission 617 nm, FITC: excitation 490 nm and emission 525 nm. Heated bacteria at 90° C. for 10 min were used as PI-positive control.

[4] = target: T1, recombinantly purified TEM-1 (Escherichia coli, UniProt P62593); format: biochemical, E. coli; details: thioflavin-T aggregation assay
T1 construct: DNA TEM (870 bp) or SHV (894 bp) were each sub-cloned into a PUC57 vector cloning site NdeI/XhoI; His-tag (N); TEV cleavage site (N); made in house; host or cells: E. coli BL21 (DE3)
T1 sequence (P62593 24-286 limits assumed): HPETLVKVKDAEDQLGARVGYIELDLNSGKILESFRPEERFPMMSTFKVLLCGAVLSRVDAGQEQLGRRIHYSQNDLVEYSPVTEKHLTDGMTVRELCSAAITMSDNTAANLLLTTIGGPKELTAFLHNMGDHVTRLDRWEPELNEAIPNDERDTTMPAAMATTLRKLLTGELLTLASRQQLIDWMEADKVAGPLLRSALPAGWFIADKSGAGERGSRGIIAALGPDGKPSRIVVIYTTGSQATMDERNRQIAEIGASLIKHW
Text: Three replicates are shown for each condition. […] A single representative image is shown. […] Three replicates are shown for each condition. […] A single representative image is shown. […] A single representative image is shown. […] A single representative image is shown.

Row | Substance | reduction of the MIC of penicillin G ([1]; additive at fixed 50 μg/mL) [fold] | MIC penicillin ([1]; in presence of additive at 50 μg/mL) [µg/mL] | induced aggregation of fluorescent proteins [2] | cells with non-lethal aggregation (shift only in pFTAA channel) ([3]; 50 μg/mL TEM3.2 in PBS, 4 h) [%] | change in PI (cell death) and pFTAA (aggregation) channels ([3]; 400 μg/mL penicillin G and 50 μg/mL TEM3.2, 4 h) | induction of aggregation of recombinantly purified TEM beta-lactamase [4]
1 | Ac-RLTAFLHNRRPRLTAFLHNRR-NH2 [TEM3.0] | 8 | 200 |  |  |  | 
2 | Ac-RLTAFLHNRRPRLTAFLRQRR-NH2 [TEM3.2] |  |  | did not observe any induced aggregation | > 99 | shift in both channels | potent inducer of the aggregation
